Test results: the supplement of paper PMC10307832

Columns and labels:
Test in all cases: relative viability (nuclei count vs DMSO), 5 days (fraction); higher = more cells survive
Everolimus + Bortezomib = compound: CO[C@H]1C[C@@H]2CC[C@@H](C)[C@@](O)(O2)C(=O)C(=O)N2CCCC[C@H]2C(=O)O[C@H]([C@H](C)C[C@@H]2CC[C@@H](OCCO)[C@H](OC)C2)CC(=O)[C@H](C)/C=C(\C)[C@@H](O)[C@@H](OC)C(=O)[C@H](C)C[C@H](C)/C=C/C=C/C=C/1C [Everolimus] + CC(C)C[C@H](NC(=O)[C@H](Cc1ccccc1)NC(=O)c1cnccn1)B(O)O [Bortezomib] (partner 0.002 µM)
Procedure, shortened: (§1)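 Relative viability is defined as nuclei in treated wells over nuclei in vehicle wells. Duplicate plates were run and medians reported. Lung cancer cell lines in 1536-well plates were dosed by pin tool one day after seeding, with one drug or with a fixed anchor-drug dose plus five library-drug doses (not always all listed) in √10 steps, and nuclei were counted after 5 days.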

Everolimus + Tozasertib = compound: CO[C@H]1C[C@@H]2CC[C@@H](C)[C@@](O)(O2)C(=O)C(=O)N2CCCC[C@H]2C(=O)O[C@H]([C@H](C)C[C@@H]2CC[C@@H](OCCO)[C@H](OC)C2)CC(=O)[C@H](C)/C=C(\C)[C@@H](O)[C@@H](OC)C(=O)[C@H](C)C[C@H](C)/C=C/C=C/C=C/1C [Everolimus] + Cc1cc(Nc2cc(N3CCN(C)CC3)nc(Sc3ccc(NC(=O)C4CC4)cc3)n2)n[nH]1 [Tozasertib] (partner 0.1 µM)
Procedure, shortened: as §1

Everolimus + AZD7762 = compound: CO[C@H]1C[C@@H]2CC[C@@H](C)[C@@](O)(O2)C(=O)C(=O)N2CCCC[C@H]2C(=O)O[C@H]([C@H](C)C[C@@H]2CC[C@@H](OCCO)[C@H](OC)C2)CC(=O)[C@H](C)/C=C(\C)[C@@H](O)[C@@H](OC)C(=O)[C@H](C)C[C@H](C)/C=C/C=C/C=C/1C [Everolimus] + NC(=O)Nc1cc(-c2cccc(F)c2)sc1C(=O)N[C@H]1CCCNC1 [AZD7762] (partner 0.2 µM)
Procedure, shortened: as §1

Everolimus + Decitabine = compound: CO[C@H]1C[C@@H]2CC[C@@H](C)[C@@](O)(O2)C(=O)C(=O)N2CCCC[C@H]2C(=O)O[C@H]([C@H](C)C[C@@H]2CC[C@@H](OCCO)[C@H](OC)C2)CC(=O)[C@H](C)/C=C(\C)[C@@H](O)[C@@H](OC)C(=O)[C@H](C)C[C@H](C)/C=C/C=C/C=C/1C [Everolimus] + Nc1ncn([C@H]2C[C@H](O)[C@@H](CO)O2)c(=O)n1 [Decitabine] (partner 2 µM)
Procedure, shortened: as §1

| Cell Line | relative viability (Everolimus + Bortezomib; first compound 0.01 µM) | relative viability (Everolimus + Bortezomib; first compound 0.03162 µM) | relative viability (Everolimus + Bortezomib; first compound 0.1 µM) | relative viability (Everolimus + Bortezomib; first compound 0.3162 µM) | relative viability (Everolimus + Bortezomib; first compound 1 µM) | relative viability (Everolimus + Tozasertib; first compound 0.01 µM) | relative viability (Everolimus + Tozasertib; first compound 0.03162 µM) | relative viability (Everolimus + Tozasertib; first compound 0.1 µM) | relative viability (Everolimus + Tozasertib; first compound 0.3162 µM) | relative viability (Everolimus + Tozasertib; first compound 1 µM) | relative viability (Everolimus + AZD7762; first compound 0.01 µM) | relative viability (Everolimus + AZD7762; first compound 0.03162 µM) | relative viability (Everolimus + AZD7762; first compound 0.1 µM) | relative viability (Everolimus + AZD7762; first compound 0.3162 µM) | relative viability (Everolimus + AZD7762; first compound 1 µM) | relative viability (Everolimus + Decitabine; first compound 0.01 µM) | relative viability (Everolimus + Decitabine; first compound 0.03162 µM) | relative viability (Everolimus + Decitabine; first compound 0.1 µM) | relative viability (Everolimus + Decitabine; first compound 0.3162 µM) | relative viability (Everolimus + Decitabine; first compound 1 µM) |
| --- | --- | --- | --- | --- | --- | --- | --- | --- | --- | --- | --- | --- | --- | --- | --- | --- | --- | --- | --- | --- |
| NCI-H1563 | 0.665 | 0.724 | 0.762 | 0.715 | 0.704 |  |  |  |  |  |  |  |  |  |  |  |  |  |  |  |
| NCI-H1395 |  |  |  |  |  | 0.56 | 0.56 | 0.493 | 0.523 | 0.507 | 0.394 | 0.374 | 0.335 | 0.405 | 0.339 | 0.59 | 0.6 | 0.563 | 0.574 | 0.6 |
| NCI-H1299 | 1.04 | 1.08 | 1.02 | 1.07 | 1.1 |  |  |  |  |  |  |  |  |  |  |  |  |  |  |  |
| NCI-H2228 | 0.705 | 0.7 | 0.645 | 0.515 | 0.614 | 0.23 | 0.244 | 0.271 | 0.211 | 0.137 |  |  |  |  |  |  |  |  |  |  |
| NCI-H2170 |  |  |  |  |  | 0.443 | 0.428 | 0.461 | 0.518 | 0.399 | 0.367 | 0.403 | 0.334 | 0.374 | 0.401 | 0.287 | 0.274 | 0.257 | 0.28 | 0.262 |
| NCI-H2342 |  |  |  |  |  | 0.557 | 0.4 | 0.435 | 0.352 | 0.407 | 0.394 | 0.331 | 0.382 | 0.376 | 0.461 | 0.652 | 0.534 | 0.474 | 0.512 | 0.537 |
| A549 |  |  |  |  |  |  |  |  |  |  |  |  |  |  |  | 0.193 | 0.194 | 0.179 | 0.174 | 0.193 |
| NCI-H358 |  |  |  |  |  | 0.0999 | 0.106 | 0.0871 | 0.101 | 0.0971 | 0.358 | 0.361 | 0.396 | 0.18 | 0.325 | 0.204 | 0.195 | 0.218 | 0.19 | 0.205 |
| CAL-12T | 0.662 | 0.732 | 0.557 | 0.597 | 0.713 | 0.173 | 0.217 | 0.212 | 0.167 | 0.182 | 0.62 | 0.529 | 0.497 | 0.446 | 0.644 |  |  |  |  |  |
| COR-L23 | 0.788 | 0.963 | 0.635 | 0.683 | 0.864 | 0.334 | 0.324 | 0.288 | 0.255 | 0.233 |  |  |  |  |  | 0.312 | 0.308 | 0.325 | 0.369 | 0.323 |
| IA-LM | 0.209 | 0.255 | 0.305 | 0.439 | 0.405 |  |  |  |  |  |  |  |  |  |  |  |  |  |  |  |
| NCI-H1650 | 0.196 | 0.186 | 0.179 | 0.243 | 0.199 | 0.46 | 0.424 | 0.416 | 0.445 | 0.482 |  |  |  |  |  | 0.472 | 0.389 | 0.556 | 0.406 | 0.573 |
| Calu-6 | 0.91 | 0.9 | 0.901 | 0.937 | 0.78 |  |  |  |  |  |  |  |  |  |  |  |  |  |  |  |
